From patent US20050159312A1, “Tryptophan aminotransferase, indole-3-pyruvate decarboxylase and indole-3-acetaldehyde oxidase as novel targets for herbicides” (priority 2002, published 2005)

Key:
Pharbitis purpurea = test: Greenhouse herbicidal activity, post-emergence; format: in vivo; conditions: 1.0 kg a.s./ha
Excerpt: (§1) The culture containers used were plastic pots comprising loamy sand with approximately 3.0% humus as substrate. The seeds of the test plants were sown separately for each species. For the post-emergence treatment, the test plants were first grown to a plant height of from 3 to 15 cm, depending on the plant habit, and only then treated with the active ingredients which had been suspended or emulsified in water. To this end, the test plants were either sown directly and grown in the same containers, or they were first grown separately as seedlings and transplanted into the test containers a few days prior to treatment. […] Depending on the species, the plants were kept at from 10-25° C. or 20-35° C., respectively. The test period extended over 2 to 4 weeks. During this time, the plants were attended, and their response to the individual treatments was evaluated. Evaluation was carried out using a scale of from 0 to 100. 100 means no emergence of the plants, or complete destruction of at least the aerial parts, while 0 means no damage, or normal course of growth. The plants used in the greenhouse experiments belong to the following species: [table]

Chenopodium album = test: Greenhouse herbicidal activity, post-emergence; format: in vivo; conditions: 1.0 kg a.s./ha
Excerpt: as §1

Echinocloa crus-galli = test: Greenhouse herbicidal activity, post-emergence; format: in vivo; conditions: 1.0 kg a.s./ha
Excerpt: as §1

[1] = tested on: indole-3-acetic acid (IEA) synthesis reaction; test: Enzyme assay for inhibitors of indole-3-acetic acid (IEA, auxin) biosynthesis, enzyme extract from plant shoots; format: biochemical, Chenopodium album
Experimental: To obtain the enzyme extract, 2 g of frozen plant shoots of Chenopodium album (common lambsquarters), which had been comminuted in a pestle and mortar under liquid nitrogen, were defrosted at room temperature in 3 ml of 100 mM EPPS extraction buffer (5 mM dithiothreitol, 6 μM pyridoxal phosphate, 10 μM leupeptin, 10 μM Pefabloc SC, pH 8.5) together with a spatula-tipfull of polyvinyl pyrrolidone in the course of 30 minutes with gentle stirring. Thereafter, the plant material was centrifuged for 10 minutes at 4° C. and the supernatant was desalinified on a Sephadex G-25 column (preequilibrated with 5 mM EPPS elution buffer (1 mM dithiothreitol, 6 μM pyridoxal phosphate, 10 μM Pefabloc SC, pH 8.5). The resulting enzyme extract (400 μl) was incubated in the test assay (volume 600 μl) for 2 hours at 37° C. in the presence of 20 μM pyridoxal phosphate, 80 mM EPPS extraction buffer, 50 μM L-tryptophan, 50 μM α-ketoglutarate and 50 μM indole with addition of 100 μl of EPPS extraction buffer and 6 μl of active ingredient solution (10 mM compound I in DMSO). The control without compound I was treated with the corresponding amount of DMSO. The reaction was subsequently stopped by addition of 20 μl 7.2N HCl and 3 ml of ethyl acetate. The control assays without incubation were placed on ice and immediately treated with HCl and ethyl acetate. After reextraction with 3 ml of ethyl acetate, the organic phases (6 ml) are combined and concentrated under a nitrogen stream, and the samples are methylated with diazomethane. […] Thereafter, the amount of IEA-Me was determined immunoanalytically by means of monoclonal antibodies (100% reactivity to IEA-Me); (method of Weiler E. W., Eberle J., Mertens R., Atzorn R., Feyerabend M., Jourdan P. S., Arnscheidt A., Wieczorek U., in: Immunology in Plant Science (Wang T. L., Ed.), Society for Experimental Biology, Seminar Series 29, Cambridge University Press, Cambridge, 1986, pp. 27-58) and used as measurement for the enzyme activities.

Inhibition [%] ([1]; 100 μM compound I, incubation 2 hours at 37° C., control value without incubation subtracted): 73% | synthesis of indole-3-acetic acid from L-tryptophan ([1]; in vitro): inhibited
Structure (SMILES): CNC(=O)C(CNC(=O)c1ccccc1F)NC(=O)c1ccc(C(F)(F)F)cc1F (stereo not drawn) [compound I]
herbicidal efficiency (Pharbitis purpurea): very good herbicidal efficiency | herbicidal efficiency (Chenopodium album): very good herbicidal efficiency | herbicidal efficiency (Echinocloa crus-galli): very good herbicidal efficiency | pMol IEA-Me/g fresh shoot weight ([1]; 100 μM compound I, incubation 2 hours at 37° C., mean from three measurements): 156.0 +/− 14.8 pMol IEA-Me/g fresh shoot weight
